Where a name gives a salt, the structure may show the parent alone.
Tests used:
Assay type in all cases: functional
Details in all cases: Homo sapiens; for TGI: read-out: pTGI (converted)
[1] = tested on: Panel leukemia (Carcinoma cell lines); assay: Anticancer activity against leukemia cancer cell lines of NCI60 panel
[2] = tested on: Panel CNS (Carcinoma cell lines); assay: Anticancer activity against CNS cancer cell lines of NCI60 panel
[3] = tested on: Panel melanoma (Carcinoma cell lines); assay: Anticancer activity against melanoma cancer cell lines of NCI60 panel
NSCLC = assay: Anticancer activity against NSCLC cancer cell lines of NCI60 panel
[4] = tested on: Panel ovarian (Carcinoma cell lines); assay: Anticancer activity against ovarian cancer cell lines of NCI60 panel
[5] = tested on: Panel breast (Carcinoma cell lines); assay: Anticancer activity against breast cancer cell lines of NCI60 panel
[6] = tested on: Panel renal (Carcinoma cell lines); assay: Anticancer activity against renal cancer cell lines of NCI60 panel
[7] = tested on: Panel prostate (Carcinoma cell lines); assay: Anticancer activity against prostate cancer cell lines of NCI60 panel
[8] = tested on: Panel colon (Carcinoma cell lines); assay: Anticancer activity against colon cancer cell lines of NCI60 panel

Compound `COc1ccc2c(c1)/C(=C\c1cc(OC)c(OC)c(OC)c1)C(=O)N2` has a GI50 [1] of 0.0871 µM, a TGI [1] of 11.2 µM and a GI50 [2] of 0.417 µM. It also gave an LC50 [2] of 95.5 µM, a TGI [2] of 12.6 µM and a GI50 [3] of 0.891 µM. For the same compound, the LC50 [3] was 95.5 µM, the TGI [3] was 41.7 µM and the GI50 (NSCLC) was 1.12 µM. For the same compound, the TGI (NSCLC) was 58.9 µM, the GI50 [4] was 0.676 µM and the LC50 [4] was 41.7 µM. It also gave a TGI [4] of 15.5 µM, a GI50 [5] of 0.398 µM and an LC50 [5] of 50.1 µM. It also gave a TGI [5] of 14.8 µM, a GI50 [6] of 0.575 µM and an LC50 [6] of 91.2 µM. For the same compound, the TGI [6] was 19.1 µM, the GI50 [7] was 0.692 µM and the GI50 [8] was 0.182 µM. The LC50 [8] was 83.2 µM and the TGI [8] was 32.4 µM.
In the case of `COc1cc(/C=C2/C(=O)Nc3cccc(Cl)c32)cc(OC)c1OC`, the GI50 [1] is reported as 2.4 µM, the TGI [1] is reported as 16.2 µM and the GI50 [2] is reported as 61.7 µM. It also gave a TGI [2] of 97.7 µM, a GI50 (NSCLC) of 75.9 µM and a GI50 [4] of 89.1 µM. For the same compound, the GI50 [5] was 85.1 µM and the GI50 [6] was 61.7 µM.
Compound `COc1cc2c(cc1C)NC(=O)/C2=C/c1cc(OC)c(OC)c(OC)c1` has a GI50 [1] of 18.2 µM, a TGI [1] of 52.5 µM and a GI50 [2] of 41.7 µM. It also gave a TGI [2] of 83.2 µM, a GI50 [3] of 74.1 µM and a GI50 (NSCLC) of 57.5 µM. For the same compound, the TGI (NSCLC) was 81.3 µM, the GI50 [4] was 75.9 µM and the TGI [5] was 93.3 µM. For the same compound, the GI50 [6] was 55 µM, the TGI [6] was 89.1 µM and the GI50 [8] was 85.1 µM.
`COc1cc(/C=C2/C(=O)Nc3ccc(F)cc32)cc(OC)c1OC` showed a GI50 [1] of 14.1 µM, a GI50 [2] of 33.1 µM and a TGI [2] of 85.1 µM. It also gave a GI50 [3] of 37.2 µM, a GI50 (NSCLC) of 26.9 µM and a TGI (NSCLC) of 91.2 µM. It also gave a GI50 [4] of 44.7 µM, a GI50 [5] of 9.55 µM and a TGI [5] of 87.1 µM. It also gave a GI50 [6] of 34.7 µM, a GI50 [7] of 27.5 µM and a GI50 [8] of 30.9 µM.
In the case of `COc1cc(/C=C2/C(=O)Nc3ccc(O)cc32)cc(OC)c1OC`, the GI50 [1] is reported as 3.02 µM, the TGI [1] is reported as 30.9 µM and the GI50 [2] is reported as 8.71 µM. The LC50 [2] was 91.2 µM, the TGI [2] was 41.7 µM and the GI50 [3] was 10 µM. The LC50 [3] was 69.2 µM, the TGI [3] was 27.5 µM and the GI50 (NSCLC) was 11.7 µM. For the same compound, the LC50 (NSCLC) was 89.1 µM, the TGI (NSCLC) was 40.7 µM and the GI50 [4] was 14.1 µM. The LC50 [4] was 93.3 µM, the TGI [4] was 47.9 µM and the GI50 [5] was 9.12 µM. The LC50 [5] was 97.7 µM, the TGI [5] was 52.5 µM and the GI50 [6] was 14.1 µM. For the same compound, the LC50 [6] was 83.2 µM, the TGI [6] was 44.7 µM and the GI50 [7] was 2.4 µM. The TGI [7] was 19.1 µM, the GI50 [8] was 12.3 µM and the LC50 [8] was 83.2 µM. It also gave a TGI [8] of 47.9 µM.
Compound `COc1cc(/C=C2/C(=O)Nc3ccccc32)cc(OC)c1OC` has a GI50 [1] of 7.59 µM, a TGI [1] of 87.1 µM and a GI50 [2] of 12.3 µM. The TGI [2] was 85.1 µM, the GI50 [3] was 20 µM and the TGI [3] was 81.3 µM. For the same compound, the GI50 (NSCLC) was 18.6 µM, the TGI (NSCLC) was 85.1 µM and the GI50 [4] was 24.5 µM. The TGI [4] was 95.5 µM, the GI50 [5] was 19.1 µM and the TGI [5] was 77.6 µM. For the same compound, the GI50 [6] was 18.6 µM, the TGI [6] was 75.9 µM and the GI50 [7] was 18.6 µM. For the same compound, the GI50 [8] was 15.1 µM and the TGI [8] was 75.9 µM.
Work on `COc1cc(/C=C2/C(=O)N(c3ccccc3)c3ccccc32)cc(OC)c1OC` yielded a GI50 [1] of 2.29 µM, a TGI [1] of 14.1 µM and a GI50 [2] of 6.03 µM. For the same compound, the LC50 [2] was 72.4 µM, the TGI [2] was 30.9 µM and the GI50 [3] was 7.41 µM. For the same compound, the LC50 [3] was 52.5 µM, the TGI [3] was 20.9 µM and the GI50 (NSCLC) was 9.33 µM. For the same compound, the LC50 (NSCLC) was 83.2 µM, the TGI (NSCLC) was 36.3 µM and the GI50 [4] was 10 µM. For the same compound, the LC50 [4] was 83.2 µM, the TGI [4] was 32.4 µM and the GI50 [5] was 8.32 µM. It also gave a TGI [5] of 53.7 µM, a GI50 [6] of 5.75 µM and an LC50 [6] of 64.6 µM. The TGI [6] was 23.4 µM, the GI50 [7] was 3.16 µM and the TGI [7] was 16.2 µM. The GI50 [8] was 5.75 µM, the LC50 [8] was 67.6 µM and the TGI [8] was 26.9 µM.
Compound `COc1cc(/C=C2/C(=O)Nc3ccc(Cl)cc32)cc(OC)c1OC` has a GI50 [1] of 8.71 µM, a GI50 [2] of 17.4 µM and a TGI [2] of 56.2 µM. It also gave a GI50 [3] of 28.2 µM, a GI50 (NSCLC) of 20.9 µM and a TGI (NSCLC) of 74.1 µM. For the same compound, the GI50 [4] was 17 µM, the TGI [4] was 77.6 µM and the GI50 [5] was 15.8 µM. The TGI [5] was 56.2 µM, the GI50 [6] was 15.8 µM and the TGI [6] was 64.6 µM. For the same compound, the GI50 [7] was 2.95 µM, the GI50 [8] was 8.32 µM and the TGI [8] was 93.3 µM.
`COc1cc(/C=C2/C(=O)N(C)c3ccccc32)cc(OC)c1OC` was tested, and the GI50 [1] was 7.24 µM, the TGI [1] was 70.8 µM and the GI50 [2] was 9.55 µM. It also gave a TGI [2] of 81.3 µM, a GI50 [3] of 17.4 µM and a TGI [3] of 43.7 µM. For the same compound, the GI50 (NSCLC) was 18.2 µM, the TGI (NSCLC) was 67.6 µM and the GI50 [4] was 18.2 µM. For the same compound, the TGI [4] was 81.3 µM, the GI50 [5] was 19.5 µM and the TGI [5] was 77.6 µM. The GI50 [6] was 12.3 µM, the TGI [6] was 61.7 µM and the GI50 [7] was 10.5 µM. It also gave a GI50 [8] of 13.5 µM and a TGI [8] of 61.7 µM.
For `CC[C@]1(O)C[C@H]2CN(CCc3c([nH]c4ccccc34)[C@@](C(=O)OC)(c3cc4c(cc3OC)N(C=O)[C@H]3[C@@](O)(C(=O)OC)[C@H](OC(C)=O)[C@]5(CC)C=CCN6CC[C@]43[C@@H]65)C2)C1` [VINCRISTINE SULFATE], the GI50 [1] was 0.1 µM, the TGI [1] was 15.8 µM and the GI50 [2] was 0.126 µM. For the same compound, the TGI [2] was 6.31 µM, the GI50 [3] was 0.158 µM and the TGI [3] was 7.94 µM. For the same compound, the GI50 (NSCLC) was 0.251 µM, the TGI (NSCLC) was 15.8 µM and the GI50 [4] was 0.316 µM. It also gave a TGI [4] of 20 µM, a GI50 [5] of 0.316 µM and a TGI [5] of 7.94 µM. It also gave a GI50 [6] of 0.316 µM, a TGI [6] of 20 µM and a GI50 [7] of 0.126 µM. It also gave a TGI [7] of 6.31 µM, a GI50 [8] of 0.1 µM and a TGI [8] of 3.98 µM.

— ChEMBL document CHEMBL1137368, “Antitumor activity of substituted E-3-(3,4,5-trimethoxybenzylidene)-1,3-dihydroindol-2-ones1” (2006)
